Results taken from ChEMBL document CHEMBL1145046, “Structure-activity relationships in carboxamide derivatives based on the targeted delivery of radionuclides and boron atoms by means of peripheral benzodiazepine receptor ligands” (J Med Chem, 2003).

The molecules below were run against Translocator protein (Rattus norvegicus, UniProt P16257) (assay: Inhibitory activity against specific binding of [3H]-CB 34 to peripheral benzodiazepine receptor in rat cortical membranes was evaluated).
Chain of Translocator protein (P16257 whole entry, looked up): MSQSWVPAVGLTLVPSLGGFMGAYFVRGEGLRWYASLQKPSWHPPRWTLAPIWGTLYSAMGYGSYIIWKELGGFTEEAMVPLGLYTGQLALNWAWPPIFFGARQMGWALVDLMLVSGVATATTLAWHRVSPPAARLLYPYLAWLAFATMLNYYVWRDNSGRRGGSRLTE
Format: cell membranes, Membrane
`O=C(NCc1ccccc1)c1cc(-c2ccccc2)c2ccccc2c1` gave an IC50 of 2700 nM.
`C#CCN(C)C(=O)c1nc2ccccc2c(-c2ccccc2)c1C` was tested, and the IC50 was 32 nM.
In the case of `CCN(Cc1ccccc1)Cc1c(C(=O)N(C)Cc2ccccc2)nc2ccccc2c1-c1ccccc1`, the IC50 is reported as 13 nM.
Molecule `O=C(NCc1ccccc1)c1cc(-c2ccccc2)c2ccccc2n1` has an IC50 of 11500 nM.
`CN(Cc1ccccc1)C(=O)c1nc2ccccc2c(-c2ccccc2)c1CO` gave an IC50 of 8.7 nM.
For `Cc1c(C(=O)N(Cc2ccccc2)Cc2ccccc2)nc2ccccc2c1-c1ccccc1`, the IC50 was 11 nM.
In the case of `Cc1c(C(=O)N(C)Cc2ccccc2)cc2ccccc2c1-c1ccccc1`, the IC50 is reported as 9.8 nM.
`Cc1c(C(=O)NCc2ccccc2)nc2ccccc2c1-c1ccccc1F` showed an IC50 of 1490 nM.
For `Cc1c(C(=O)N(C)Cc2ccccc2)nc2ccccc2c1-c1ccccc1`, the IC50 was 4.6 nM.
With `CN(Cc1ccccc1)C(=O)c1cc(-c2ccccc2)c2ccccc2c1` the IC50 was 64 nM.
With `Cc1c(C(=O)N(C)Cc2ccccc2)nc2ccccc2c1-c1ccccc1F` the IC50 was 2.2 nM.
In the case of `CCN(CC)Cc1c(C(=O)N(C)Cc2ccccc2)nc2ccccc2c1-c1ccccc1`, the IC50 is reported as 12 nM.
In the case of `CN(Cc1ccccc1)C(=O)c1cc(-c2ccccc2)c2ccccc2n1`, the IC50 is reported as 38 nM.
Molecule `Cc1c(C(=O)NCc2ccccc2)cc2ccccc2c1-c1ccccc1` has an IC50 of 6600 nM.
In the case of `CN(Cc1ccccc1)C(=O)c1nc2ccccc2c(-c2ccccc2)c1CCl`, the IC50 is reported as 0.45 nM.
`Cc1c(C(=O)NCc2ccccc2)nc2ccccc2c1-c1ccccc1` was tested, and the IC50 was 10300 nM.
